From patent publication US6740642B2, “Macrolides with antibacterial activity” (BAsilea Parmaceutica AG, priority 2000, dated 2004)
Like-named read-outs stand apart in the source and are kept apart here.

Experiments:
H. influenzae 12214 = assay: MIC, agar dilution, HTM medium; assay type: cell-based, Haemophilus influenzae
From the text: (§1) The biological activities of compounds of the present invention against Haemophilus influenzae have been determined by standard agar dilution method using HTM medium (National Committee for Clinical Laboratory Standards. 1997. Methods for dilution antimicrobial susceptibility tests for bacteria that grow aerobically, 4th edition. Approved standard M7-A4. National Committee for Clinical Laboratory Standards, Wayne, Pa.).

H. influenzae H13 LAH = assay: MIC, agar dilution, HTM medium; assay type: cell-based, Haemophilus influenzae
From the text: as §1

H. influenzae 4139 = assay: MIC, agar dilution, HTM medium; assay type: cell-based, Haemophilus influenzae
From the text: as §1

H. influenzae 3457 = assay: MIC, agar dilution, HTM medium; assay type: cell-based, Haemophilus influenzae
From the text: as §1

H. influenzae 23369 = assay: MIC, agar dilution, HTM medium; assay type: cell-based, Haemophilus influenzae
From the text: as §1

H. influenzae Christy = assay: MIC, agar dilution, HTM medium; assay type: cell-based, Haemophilus influenzae
From the text: as §1

H. influenzae H36 ODL = assay: MIC, agar dilution, HTM medium; assay type: cell-based, Haemophilus influenzae
From the text: as §1

H. influenzae QK 50 = assay: MIC, agar dilution, HTM medium; assay type: cell-based, Haemophilus influenzae
From the text: as §1

H. influenzae 23145 = assay: MIC, agar dilution, HTM medium; assay type: cell-based, Haemophilus influenzae
From the text: as §1

H. influenzae 2947 = assay: MIC, agar dilution, HTM medium; assay type: cell-based, Haemophilus influenzae
From the text: as §1

H. influenzae 3201 = assay: MIC, agar dilution, HTM medium; assay type: cell-based, Haemophilus influenzae
From the text: as §1

H. influenzae Rd KW20 = assay: MIC, agar dilution, HTM medium; assay type: cell-based, Haemophilus influenzae
From the text: as §1

H. influenzae B 1501 = assay: MIC, agar dilution, HTM medium; assay type: cell-based, Haemophilus influenzae
From the text: as §1

H. influenzae ATCC 49247 = assay: MIC, agar dilution, HTM medium; assay type: cell-based, Haemophilus influenzae
From the text: as §1

H. influenzae H28 HEL = assay: MIC, agar dilution, HTM medium; assay type: cell-based, Haemophilus influenzae
From the text: as §1

H. influenzae ATCC 9334 = assay: MIC, agar dilution, HTM medium; assay type: cell-based, Haemophilus influenzae
From the text: as §1

H. influenzae 1 = assay: MIC, agar dilution, HTM medium; assay type: cell-based, Haemophilus influenzae
From the text: as §1

H. influenzae QK 12/87 = assay: MIC, agar dilution, HTM medium; assay type: cell-based, Haemophilus influenzae
From the text: as §1

H. influenzae 11 = assay: MIC, agar dilution, HTM medium; assay type: cell-based, Haemophilus influenzae
From the text: as §1

H. influenzae 3640 = assay: MIC, agar dilution, HTM medium; assay type: cell-based, Haemophilus influenzae
From the text: as §1

H. influenzae H20 HDL = assay: MIC, agar dilution, HTM medium; assay type: cell-based, Haemophilus influenzae
From the text: as §1

S. aureus 745 = assay: MIC, standard microdilution; assay type: cell-based, Staphylococcus aureus; settings: for MIC: Staphylococcus aureus, read-out: minimum inhibitory concentration (MIC)
From the text: (§2) The antibacterial activities of the compounds have been determined by standard microdilution technique (National Committee for Clinical Laboratory Standards. 1997. Methods for dilution antimicrobial susceptibility tests for bacteria that grow aerobically, 4th edition. Approved standard M7-A4. National Committee for Clinical Laboratory Standards, Wayne, Pa.).

S. aureus ATCC29213 = assay: MIC, standard microdilution; assay type: cell-based, Staphylococcus aureus; settings: for MIC: Staphylococcus aureus, read-out: minimum inhibitory concentration (MIC)
From the text: as §2

S. aureus 1086 = assay: MIC, standard microdilution; assay type: cell-based, Staphylococcus aureus; settings: for MIC: Staphylococcus aureus, read-out: minimum inhibitory concentration (MIC)
From the text: as §2

St. pneumoniae 1/1 = assay: MIC, standard microdilution; assay type: cell-based, Streptococcus pneumoniae; settings: for MIC: Streptococcus pneumoniae, read-out: minimum inhibitory concentration (MIC)
From the text: as §2

St. pneumoniae 12288 = assay: MIC, standard microdilution; assay type: cell-based, Streptococcus pneumoniae; settings: for MIC: Streptococcus pneumoniae, read-out: minimum inhibitory concentration (MIC)
From the text: as §2

St. pneumoniae 1/4 = assay: MIC, standard microdilution; assay type: cell-based, Streptococcus pneumoniae; settings: for MIC: Streptococcus pneumoniae, read-out: minimum inhibitory concentration (MIC)
From the text: as §2

St. pneumoniae SL199T = assay: MIC, standard microdilution; assay type: cell-based, Streptococcus pneumoniae; settings: for MIC: Streptococcus pneumoniae, read-out: minimum inhibitory concentration (MIC)
From the text: as §2

E. coli ATCC25922 = assay: MIC, standard microdilution; assay type: cell-based; settings: for MIC: Escherichia coli, read-out: minimum inhibitory concentration (MIC)
From the text: as §2

[1] = test system: P. aeruginosa ATCC27853 (+Ery. 32 μg/ml); assay: MIC, standard microdilution; assay type: cell-based
From the text: as §2

[2] = Haemophilus influenzae, read-out: MIC
[3] = Haemophilus influenzae, H13LAH, read-out: MIC
[4] = Haemophilus influenzae, H36ODL, read-out: MIC
[5] = Haemophilus influenzae, QK50, read-out: MIC
[6] = Haemophilus influenzae, RDKW20, read-out: MIC
[7] = Haemophilus influenzae, B1501, read-out: MIC
[8] = Haemophilus influenzae, ATCC49247, read-out: MIC
[9] = Haemophilus influenzae, H28HEL, read-out: MIC
[10] = Haemophilus influenzae, ATCC9334, read-out: MIC
[11] = Haemophilus influenzae, QK12/87, read-out: MIC
[12] = Haemophilus influenzae, H20HDL, read-out: MIC

CC[C@H]1OC(=O)[C@H](C)[C@@H](O[C@H]2C[C@@](C)(OC)[C@@H](O)C(C)O2)[C@H](C)[C@@H](O[C@@H]2OC(C)C[C@H](N(C)C)[C@H]2O)[C@](C)(O)C[C@@H](C)CN(C)C(C)C(O)[C@]1(C)O (stereo partly drawn) [Azithromycin (3), azithromycin]
2 µg/mL: MIC (H. influenzae 12214; [2]) | MIC (H. influenzae H13 LAH; [3]) | MIC (H. influenzae Christy; [2]) | MIC (H. influenzae H36 ODL; [4]) | MIC (H. influenzae QK 50; [5]) | MIC (H. influenzae 23145; [2]) | MIC (H. influenzae 2947; [2]) | MIC (H. influenzae 3201; [2]) | MIC (H. influenzae Rd KW20; [6]) | MIC (H. influenzae ATCC 49247; [8]) | MIC (H. influenzae ATCC 9334; [10]) | MIC (H. influenzae 1; [2]) | MIC (H. influenzae 11; [2])
1 µg/mL: MIC (H. influenzae B 1501; [7]) | MIC (H. influenzae H28 HEL; [9]) | MIC (H. influenzae 3640; [2]) | MIC (H. influenzae H20 HDL; [12])
4 µg/mL: MIC (H. influenzae 23369; [2])
0.5 µg/mL: MIC (H. influenzae 4139; [2]) | MIC (H. influenzae 3457; [2]) | MIC (H. influenzae QK 12/87; [11])

CC[C@H]1OC(=O)[C@H](C)[C@@H](O[C@H]2C[C@@](C)(OC)[C@@H](O)[C@H](C)O2)[C@H](C)[C@@H](O[C@@H]2O[C@H](C)C[C@H](N(C)C)[C@H]2O)[C@](C)(OC)C[C@@H](C)C(=O)[C@H](C)[C@@H](O)[C@]1(C)O [Clarithromycin (2), clarithromycin]
≤ 0.12 µg/mL: MIC (St. pneumoniae 1/1)
2 µg/mL: MIC (H. influenzae QK 12/87; [11])
> 16 µg/mL: MIC (S. aureus 745) | MIC (St. pneumoniae 12288) | MIC (E. coli ATCC25922)
>16 µg/mL: minimum inhibitory concentration (MIC) [1]
16 µg/mL: MIC (S. aureus 1086) | MIC (St. pneumoniae 1/4) | MIC (St. pneumoniae SL199T) | MIC (H. influenzae 23369; [2]) | MIC (H. influenzae H36 ODL; [4]) | MIC (H. influenzae 2947; [2]) | MIC (H. influenzae 3201; [2]) | MIC (H. influenzae 11; [2])
4 µg/mL: MIC (H. influenzae 4139; [2]) | MIC (H. influenzae H28 HEL; [9]) | MIC (H. influenzae 3640; [2]) | MIC (H. influenzae H20 HDL; [12])
0.25 µg/mL: MIC (S. aureus ATCC29213)
8 µg/mL: MIC (H. influenzae 12214; [2]) | MIC (H. influenzae H13 LAH; [3]) | MIC (H. influenzae Christy; [2]) | MIC (H. influenzae QK 50; [5]) | MIC (H. influenzae 23145; [2]) | MIC (H. influenzae Rd KW20; [6]) | MIC (H. influenzae B 1501; [7]) | MIC (H. influenzae ATCC 49247; [8]) | MIC (H. influenzae ATCC 9334; [10]) | MIC (H. influenzae 1; [2])
1 µg/mL: MIC (H. influenzae 3457; [2])

CC[C@H]1OC(=O)[C@H](C)C(=O)[C@H](C)[C@@H](O[C@@H]2O[C@H](C)C[C@H](N(C)C)[C@H]2O)[C@](C)(OC)C[C@@H](C)C(=O)[C@H](C)[C@H]2[C@H](SCCn3ccc(=O)[nH]c3=O)C(=O)O[C@@]21C [Compound I-6, (3S,3aR,4R,6R,8R,9R,10R,12R,15R,15aS)-15-Ethyloctahydro-8-methoxy-4,6,8,10,12,15a-hexamethyl-3-[[2-[2,4-1H,3H-pyriminedione-1-yl]ethyl]-thio]-9-[[3,4,6-trideoxy-3-(dimethylamino)-β-D-xylo-hexopyranosyl]oxy]-2H-furo[2,3-c]oxacyclotetradecin-2,5,11,13(3H,6H,12H)-tetrone]
1 µg/mL: minimum inhibitory concentration (MIC) (St. pneumoniae SL199T) | MIC (H. influenzae QK 12/87) | MIC (H. influenzae H20 HDL)
2 µg/mL: MIC (H. influenzae H13 LAH) | MIC (H. influenzae 4139) | MIC (H. influenzae Christy) | MIC (H. influenzae QK 50) | MIC (H. influenzae Rd KW20) | MIC (H. influenzae B 1501) | MIC (H. influenzae ATCC 49247) | MIC (H. influenzae H28 HEL) | MIC (H. influenzae ATCC 9334) | MIC (H. influenzae 3640)
4 µg/mL: minimum inhibitory concentration (MIC) (St. pneumoniae 12288) | MIC (H. influenzae 12214) | MIC (H. influenzae 23369) | MIC (H. influenzae H36 ODL) | MIC (H. influenzae 23145) | MIC (H. influenzae 2947) | MIC (H. influenzae 3201) | MIC (H. influenzae 1) | MIC (H. influenzae 11)
<=0.12 μg/ml: minimum inhibitory concentration (MIC) (S. aureus ATCC29213) | minimum inhibitory concentration (MIC) (S. aureus 1086) | minimum inhibitory concentration (MIC) (St. pneumoniae 1/1) | minimum inhibitory concentration (MIC) (St. pneumoniae 1/4)
0.25 µg/mL: MIC (H. influenzae 3457)
>16 µg/mL: minimum inhibitory concentration (MIC) (S. aureus 745) | minimum inhibitory concentration (MIC) (E. coli ATCC25922) | minimum inhibitory concentration (MIC) [1]

CC[C@H]1OC(=O)[C@H](C)C(=O)[C@H](C)[C@@H](O[C@@H]2O[C@H](C)C[C@H](N(C)C)[C@H]2O)[C@](C)(OC)C[C@@H](C)C(=O)[C@H](C)[C@H]2[C@H](SCCn3cnc4c(N(C)C)ncnc43)C(=O)O[C@@]21C [Compound I-27, (3S,3aR,4R,6R,8R,9R,10R,12R,15R,15aS)-3-[[2-[6-N,N-Dimethylamino-9H-purine-9-yl]ethyl]thio]-15-ethyloctahydro-8-methoxy-4,6,8,10,12,15a-hexamethyl-9-[[3,4,6-trideoxy-3-(dimethylamino)-β-D-xylo-hexopyranosyl]oxy]-2H-furo[2,3-c]oxacyclotetradecin-2,5,11,13(3H,6H,12H)-tetrone]
1 µg/mL: minimum inhibitory concentration (MIC) (S. aureus 1086) | minimum inhibitory concentration (MIC) (St. pneumoniae SL199T)
>16 µg/mL: minimum inhibitory concentration (MIC) (S. aureus 745) | minimum inhibitory concentration (MIC) (E. coli ATCC25922) | minimum inhibitory concentration (MIC) [1]
0.25 µg/mL: minimum inhibitory concentration (MIC) (S. aureus ATCC29213)
2 µg/mL: minimum inhibitory concentration (MIC) (St. pneumoniae 12288)
<=0.25 μg/ml: minimum inhibitory concentration (MIC) (St. pneumoniae 1/1) | minimum inhibitory concentration (MIC) (St. pneumoniae 1/4)

CO[C@@H]1[C@@H](O[C@@H]2O[C@H](C)[C@@H](O[C@H]3C[C@@](C)(O)[C@@H](OC(=O)CC(C)C)[C@H](C)O3)[C@H](N(C)C)[C@H]2O)[C@@H](CC=O)C[C@@H](C)[C@@H](O)/C=C/C=C/C[C@@H](C)OC(=O)C[C@H]1OC(C)=O [Josamycin, reference compound]
≤ 4 µg/mL: MIC (St. pneumoniae 1/4)
> 16 µg/mL: MIC (S. aureus 745) | MIC (St. pneumoniae 12288) | MIC (St. pneumoniae SL199T) | MIC (E. coli ATCC25922)
>16 µg/mL: minimum inhibitory concentration (MIC) [1]
≤ 0.12 µg/mL: MIC (St. pneumoniae 1/1)
2 µg/mL: MIC (S. aureus ATCC29213) | MIC (S. aureus 1086)
